Where “and” joins values, the source holds several entries; their conditions need not be identical. Equal entries are not always repeated. Entries after “also recorded” stand apart in the source; their conditions may differ.
Assays:
[1] = system: LEW donor or third-party BUF heart allografts; experiment: Transplantation tolerance: heart allograft challenge of long-term surviving recipients; type: in vivo, rat; conditions: recipients made tolerant with NC1153; n=3
Description: ACI rat recipients of LEW kidney allografts were treated for 14 days with NC1153 delivered by daily oral gavage. […] ACI rat recipients of LEW kidney allografts were treated for 7 days and thereafter 3×/week up to 90 days with 160 mg/kg NC1153 delivered by daily oral gavage. […] The mechanism of tolerance was examined when irradiated (400 rads) ACI recipients of LEW heart allografts were adoptively transferred with 30×10^6 purified T cells from tolerant recipients.

LEW kidney allografts = experiment: Rat kidney allograft survival (LEW donors to ACI recipients); type: in vivo
Source text: Rat Kidney Transplants. Adult male ACI (RT1^a) and Lewis (LEW; RT1^1) rats (160-200 g) obtained from Harlan Sprague-Dawley (Indianapolis, Ind.) were cared for according to the guidelines of the Animal Welfare Committee. Rats were housed in light- and temperature-controlled quarters and given chow and water ad libitum. Kidneys were transplanted heterotopically from LEW donors to ACI recipients using a standard microsurgical technique of Ono and Lindsey^28. […] A control group of recipients remained untreated. […] Graft survival time was defined as animal survival of life supporting kidney transplant.
To test the in vivo effects, recipients of kidney allografts were treated with 649641P (NC1153) for 7 days beginning immediately after transplantation. […] A mean survival time (MST) and SD was calculated for each group from 5-6 experiments.
A MST and SD were calculated for each group from 5-6 experiments. The combination index (CI) values were calculated.

Jak3 = target: T1, Jak3 (Homo sapiens, UniProt P52333); experiment: Jak3 autokinase activity of immunopurified Jak3 (phosphotyrosine Western blot); type: biochemical; parameters: immunopurified Jak3 was assayed for Jak3 autokinase activity and tested by phosphotyrosine Western blot; endogenous in cells
T1 sequence (P52333 1-1124): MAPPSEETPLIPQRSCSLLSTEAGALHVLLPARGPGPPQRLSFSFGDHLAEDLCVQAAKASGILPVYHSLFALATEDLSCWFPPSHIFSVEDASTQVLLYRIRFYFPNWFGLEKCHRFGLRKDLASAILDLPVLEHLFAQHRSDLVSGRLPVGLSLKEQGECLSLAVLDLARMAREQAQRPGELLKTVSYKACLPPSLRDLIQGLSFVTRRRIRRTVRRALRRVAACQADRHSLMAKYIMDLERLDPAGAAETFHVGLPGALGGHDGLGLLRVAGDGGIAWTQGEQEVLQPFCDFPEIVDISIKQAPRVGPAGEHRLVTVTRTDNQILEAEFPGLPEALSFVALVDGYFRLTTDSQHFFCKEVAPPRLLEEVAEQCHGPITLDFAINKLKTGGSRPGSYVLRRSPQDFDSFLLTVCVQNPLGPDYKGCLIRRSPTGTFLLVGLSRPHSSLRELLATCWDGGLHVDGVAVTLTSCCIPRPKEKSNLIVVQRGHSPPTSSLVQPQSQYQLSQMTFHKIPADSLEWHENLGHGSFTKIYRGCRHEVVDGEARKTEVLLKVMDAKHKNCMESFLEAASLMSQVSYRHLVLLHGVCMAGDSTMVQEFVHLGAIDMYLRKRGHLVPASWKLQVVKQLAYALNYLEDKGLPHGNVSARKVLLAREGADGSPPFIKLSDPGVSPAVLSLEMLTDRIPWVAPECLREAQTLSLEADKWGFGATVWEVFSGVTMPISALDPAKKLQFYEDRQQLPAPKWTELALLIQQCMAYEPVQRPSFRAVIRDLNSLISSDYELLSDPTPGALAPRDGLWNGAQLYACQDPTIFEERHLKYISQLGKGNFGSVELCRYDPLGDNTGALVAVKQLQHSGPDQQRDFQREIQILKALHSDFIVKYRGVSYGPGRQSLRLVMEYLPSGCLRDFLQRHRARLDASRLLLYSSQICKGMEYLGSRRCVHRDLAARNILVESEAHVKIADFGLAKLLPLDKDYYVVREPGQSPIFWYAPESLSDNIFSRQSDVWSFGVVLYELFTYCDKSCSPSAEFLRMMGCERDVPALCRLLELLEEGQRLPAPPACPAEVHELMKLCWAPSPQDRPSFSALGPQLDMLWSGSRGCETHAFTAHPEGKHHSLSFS
Description: Immunopurified Jak3 was assayed for Jak3 autokinase activity and tested by phosphotyrosine Western blot in the absence or presence of 100 μM ATP and/or drug and compared to controls.
Referring now to FIG. 8, direct evidence is provided that […] (NC1153) inhibits Jak3 signaling pathways. […] The bands identified as “PY-Jak3” reveal only the active Jak3 at the indicated dosages of NC1153, with or without IL-2 and ATP.

Lck = Lck (Homo sapiens, UniProt P06239); experiment: Tyrosine phosphorylation of activated Lck in YT cells; type: cell-based; parameters: Cellular extracts were immunoprecipitated with anti-Fyn or anti-Lck antibodies; endogenous in cells; host or cells: YT cells; conditions: 1-100 μM, 2 hours
Fyn = Fyn (Homo sapiens, UniProt P06241); experiment: Tyrosine phosphorylation of activated Fyn in YT cells; type: cell-based; parameters: Cellular extracts were immunoprecipitated with anti-Fyn or anti-Lck antibodies; endogenous in cells; host or cells: YT cells; conditions: 1-100 μM, 2 hours
Fyn, sequence (P06241 whole entry): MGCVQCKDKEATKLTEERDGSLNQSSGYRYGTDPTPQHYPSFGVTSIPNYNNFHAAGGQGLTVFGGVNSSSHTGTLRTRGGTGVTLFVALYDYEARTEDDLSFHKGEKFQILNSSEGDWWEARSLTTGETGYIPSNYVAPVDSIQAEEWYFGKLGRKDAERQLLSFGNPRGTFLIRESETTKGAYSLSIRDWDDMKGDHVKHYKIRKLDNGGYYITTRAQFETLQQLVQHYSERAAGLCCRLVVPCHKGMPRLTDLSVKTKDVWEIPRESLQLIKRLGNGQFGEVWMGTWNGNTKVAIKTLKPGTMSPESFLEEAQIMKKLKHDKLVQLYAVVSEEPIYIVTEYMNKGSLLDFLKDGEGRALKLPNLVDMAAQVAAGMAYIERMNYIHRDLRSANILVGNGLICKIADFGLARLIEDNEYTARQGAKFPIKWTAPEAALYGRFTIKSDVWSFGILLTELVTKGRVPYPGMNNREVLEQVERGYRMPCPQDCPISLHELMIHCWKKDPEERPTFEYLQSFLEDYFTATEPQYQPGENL

Lck, sequence (P06239 whole entry): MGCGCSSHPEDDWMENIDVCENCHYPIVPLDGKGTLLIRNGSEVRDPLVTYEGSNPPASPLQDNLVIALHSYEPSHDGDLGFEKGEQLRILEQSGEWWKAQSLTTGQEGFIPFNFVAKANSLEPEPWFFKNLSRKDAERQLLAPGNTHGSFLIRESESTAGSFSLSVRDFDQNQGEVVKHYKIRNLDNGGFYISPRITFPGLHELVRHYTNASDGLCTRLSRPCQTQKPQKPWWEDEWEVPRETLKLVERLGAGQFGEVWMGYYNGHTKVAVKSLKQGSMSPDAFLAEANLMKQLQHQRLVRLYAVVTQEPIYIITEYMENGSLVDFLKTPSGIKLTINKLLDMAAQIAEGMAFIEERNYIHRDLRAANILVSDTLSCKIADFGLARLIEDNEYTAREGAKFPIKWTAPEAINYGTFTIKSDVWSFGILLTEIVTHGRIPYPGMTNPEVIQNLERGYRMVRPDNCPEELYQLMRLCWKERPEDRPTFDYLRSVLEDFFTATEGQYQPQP

CN(C)CC1CCCCCCCCCC(CN(C)C)C1=O (mixture of isomers) [649641P (NC1153)]
survival of LEW donor heart allografts in long-term surviving recipients [1]: > 100 days
survival of third-party BUF heart allografts in long-term surviving recipients [1]: 7.0±1.0 days
MST ± SD (LEW kidney allografts; 649641P (NC1153) 2.5 mg/kg/d i.v. × 7 days alone): 9.5 ± 1.4 days and 9.5 ± 1.5 days
MST ± SD (LEW kidney allografts; 649641P (NC1153) 5.0 mg/kg/d i.v. × 7 days alone): 12.2 ± 1.5 days
MST ± SD (LEW kidney allografts; 649641P (NC1153) 10.0 mg/kg/d i.v. × 7 days alone): 18.8 ± 1.1 days
MST ± SD (LEW kidney allografts; 649641P (NC1153) 20.0 mg/kg/d i.v. × 7 days alone): 24.8 ± 6.6 days and 24.8 ± 4.6 days
MST ± SD (LEW kidney allografts; 649641P (NC1153) 40.0 mg/kg/d p.o. × 7 days alone): 12.3 ± 1.26 days
MST ± SD (LEW kidney allografts; 649641P (NC1153) 80.0 mg/kg/d p.o. × 7 days alone): 18.6 ± 5.32 days
MST ± SD (LEW kidney allografts; 649641P (NC1153) 160.0 mg/kg/d p.o. × 7 days alone): 31.0 ± 3.9 days
MST (LEW kidney allografts; 649641P (NC1153) 240 mg/kg/day p.o. for 7 days): 47.8 ± 19.59 days
rat kidney allograft survival (LEW kidney allografts; given alone, i.v. or oral gavage, 7 days): prolonged rat kidney allograft survival in a dose-dependent fashion
IC50 (Jak3; 100 μM ATP): ~2500 nM
inhibition of Jak3 relative to Jak2 in kinase assays (Jak3; FIG. 9B and FIG. 8): At least 50 fold
activity (tyrosine phosphorylation) of Lck (Lck): no effect; also recorded: does not block the activity; also recorded: did not inhibit
activity (tyrosine phosphorylation) of Fyn (Fyn): no effect; also recorded: does not block the activity; also recorded: did not inhibit
